The results in this text go back to patent US20060009493A1, “Indolinone hydrazides as c-Met inhibitors” (Sugen, Inc., priority 2003, published 2006).

As usually defined, the IC50 is the concentration needed to halve the response being measured. A higher IC50 goes with a need for much substance.

The structures appear in SMILES notation. Values joined by “and” are separate entries in the source; they are usually repeats but may differ in a detail not shown here. Equal values may be shown once.

T1 sequence (P08581 1078-1345 limits assumed): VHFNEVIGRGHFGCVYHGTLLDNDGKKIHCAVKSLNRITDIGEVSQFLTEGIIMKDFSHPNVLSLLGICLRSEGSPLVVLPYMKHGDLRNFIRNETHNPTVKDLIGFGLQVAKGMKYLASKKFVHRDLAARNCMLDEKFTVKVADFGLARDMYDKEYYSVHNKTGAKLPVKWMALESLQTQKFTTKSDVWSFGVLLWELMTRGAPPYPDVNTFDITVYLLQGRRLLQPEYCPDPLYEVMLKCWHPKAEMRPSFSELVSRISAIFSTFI

This assay addresses T1, GST fusion protein containing the Met kinase domain (Homo sapiens, UniProt P08581).
T1 construct: Purified GST fusion protein containing the Met kinase domain, Sugen, Inc
Description: MET Transphosphorylation Assay (ELISA, poly(Glu,Tyr) 4:1 substrate). It is filed as biochemical. Particulars: met transphosphorylation of poly(glutamic acid:tyrosine 4:1) substrate; two values in a cell separated by '/'. In outline: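 Poly(Glu-Tyr)-coated wells received the GST-Met kinase domain (10 ng/well) with compound in DMSO for 15 minutes. The reaction was started with ATP/MnCl2 in HEPES pH 7.5 buffer with vanadate, run 5 minutes, and stopped with EDTA. Phosphotyrosine was detected by anti-pTyr antibody, HRP secondary and ABTS/H2O2.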
In general terms: ELISA stands for enzyme-linked immunosorbent assay.
The compound `O=C(Cc1cccc(Cl)c1)N/N=C1\C(=O)Nc2ccc(Br)cc21` [II-15, (3-Chloro-phenyl)-acetic acid [(3Z)-5-bromo-2-oxo-1,2-dihydro-indol-3-ylidene]-hydrazide] came in with an IC50 of 13700 nM. The compound `CC(C(=O)N/N=C1\C(=O)Nc2ccc(C(=O)N3CCC(NC4CC4)CC3)c(Cl)c21)c1ccc(F)cc1` (stereo not shown) [Example I-30, 2-(4-Fluoro-phenyl)-propionic acid [(3Z)-4-chloro-5-(4-cyclopropylamino-piperidine-1-carbonyl)-2-oxo-1,2-dihydro-indol-3-ylidene]-hydrazide] returned an IC50 of 130 nM. `COc1c(O)c2c(c(Cl)c1Cl)NC(=O)/C2=N\NC(=O)Cc1ccc(O)cc1` [II-97, (4-Hydroxy-phenyl)-acetic acid [(3Z)-6,7-dichloro-4-hydroxy-5-methoxy-2-oxo-1,2-dihydro-indol-3-ylidene]-hydrazide]: it took 320 nM to reach half-maximal inhibition (IC50). `O=C(Cc1ccc(F)cc1)N/N=C1\C(=O)Nc2ccccc21` [II-27, (4-Fluoro-phenyl)-acetic acid [(3Z)-2-oxo-1,2-dihydro-indol-3-ylidene]-hydrazide]: it took 2150 nM to reach half-maximal inhibition (IC50). `O=C(Cc1ccc(O)cc1)N/N=C1\C(=O)Nc2c(Cl)cc(Cl)cc21` [II-61, (4-Hydroxy-phenyl)-acetic acid [(3Z)-5,7-dichloro-2-oxo-1,2-dihydro-indol-3-ylidene)-hydrazide] returned an IC50 of 88 nM. In the case of `O=C(Cc1ccc(O)cc1)N/N=C1\C(=O)Nc2ccc(C(=O)N3CCC(NC4CC4)CC3)c(Cl)c21` [Example I-28, (4-Hydroxy-phenyl)-acetic acid [(3Z)-4-chloro-5-(4-cyclopropylamino-piperidine-1-carbonyl)-2-oxo-1,2-dihydro-indol-3-ylidene]-hydrazide] it was 24 nM; in that of `O=C(Cc1cnc(=O)[nH]c1)N/N=C1\C(=O)Nc2c(Cl)ccc(Cl)c21` [II-96, (2-Oxo-1,2-dihydro-pyrimidin-5-yl)-acetic acid [(3Z)-4,7-dichloro-2-oxo-1,2-dihydro-indol-3-ylidene]-hydrazide], 3080 nM; in that of `O=C(CCc1ccc(O)cc1)N/N=C1\C(=O)Nc2c(Cl)ccc(Cl)c21` [II-76, 3-(4-Hydroxy-phenyl)-propionic acid [(3Z)-4,7-dichloro-2-oxo-1,2-dihydro-indol-3-ylidene]-hydrazide], 46 nM. As for `CC(C(=O)N/N=C1\C(=O)Nc2ccccc21)c1ccc(O)cc1` (stereo not shown) [II-18, 2-(4-Hydroxy-phenyl)-propionic acid [(3Z)-2-oxo-1,2-dihydro-indol-3-ylidene]-hydrazide], the IC50 was found to be 30 nM. In the case of `COc1ccc(CC(=O)N/N=C2\C(=O)Nc3ccccc32)cc1OC` [II-5, (3,4-Dimethoxy-phenyl)-acetic acid [(3Z)-2-oxo-1,2-dihydro-indol-3-ylidene]-hydrazide], the IC50 was > 20000 nM. Under `CC(C(=O)N/N=C1\C(=O)Nc2ccc(C(=O)NCCN3CCOCC3)c(Cl)c21)c1ccc(F)cc1` (stereo not shown) [Example I-39, (3Z)-4-Chloro-3-{[2-(4-fluoro-phenyl)-propionyl]-hydrazono}-2-oxo-2,3-dihydro-1H-indole-5-carboxylic acid (2-morpholin-4-yl-ethyl)-amide] stands 110 nM. Consider `O=C(CCc1ccc(O)cc1)N/N=C1\C(=O)Nc2ccccc21` [II-24, 3-(4-Hydroxy-phenyl)-propionic acid [(3E)-2-oxo-1,2-dihydro-indol-3-ylidene]-hydrazide], for which the IC50 was > 20000 nM. In the case of `COC(C(=O)N/N=C1\C(=O)Nc2ccccc21)c1ccccc1` (stereo not shown) [Example I-5, Methoxy-phenyl-acetic acid [(3Z)-2-oxo-1,2-dihydro-indol-3-ylidene]-hydrazide] it was > 20000 nM and 13600 nM; in that of `O=C(Cc1cc(O)[nH]n1)N/N=C1\C(=O)Nc2c(Cl)ccc(Cl)c21` [II-87, (5-Hydroxy-1H-pyrazol-3-yl)-acetic acid [(3Z)-4,7-dichloro-2-oxo-1,2-dihydro-indol-3-ylidene]-hydrazide], 630 nM. Compound `Cn1cc(CC(=O)N/N=C2\C(=O)Nc3ccc(C(=O)N4CCC(NC5CC5)CC4)c(Cl)c32)ccc1=O` [Example I-35, (1-Methyl-6-oxo-1,6-dihydro-pyridin-3-yl)-acetic acid [(3Z)-4-chloro-5-(4-cyclopropylamino-piperidine-1-carbonyl)-2-oxo-1,2-dihydro-indol-3-ylidene]-hydrazide] had an IC50 of 1230 nM.

As to `O=C(Cn1ccc(=O)[nH]c1=O)N/N=C1\C(=O)Nc2ccccc21` [II-71, (2,4-Dioxo-3,4-dihydro-2H-pyrimidin-1-yl)-acetic acid [(3Z)-2-oxo-1,2-dihydro-indol-3-ylidene]-hydrazide], the concentration for half-maximal inhibition (IC50) is > 20000 nM. As for `CC(C)(C(=O)N/N=C1\C(=O)Nc2ccc(C(=O)O)c(Cl)c21)c1ccc(Cl)cc1` [II-92, (3Z)-4-Chloro-3-{[2-(4-chloro-phenyl)-2-methyl-propionyl]-hydrazono}-2-oxo-2,3-dihydro-1H-indole-5-carboxylic acid], the IC50 was > 20000 nM. `O=C(Cc1ccc(O)cc1)N/N=C1\C(=O)Nc2cccc(-c3ccc(F)cc3)c21` [Example I-15, (4-Hydroxy-phenyl)-acetic acid [(3Z)-4-(4-fluoro-phenyl)-2-oxo-1,2-dihydro-indol-3-ylidene]-hydrazide] came in with an IC50 of 890 nM.

In turn, `CC(C(=O)N/N=C1\C(=O)Nc2c(Cl)ccc(Cl)c21)c1ccc2c(c1)OCO2` (stereo not shown) [Example I-52, 2-Benzo[1,3]dioxol-5-yl-propionic acid [(3Z)-4,7-dichloro-2-oxo-1,2-dihydro-indol-3-ylidene]-hydrazide] showed an IC50 of 260 nM.

The compound `O=C(Cc1ccccc1)N/N=C1\C(=O)Nc2ccccc21` [II-3, Phenyl-acetic acid [(3Z)-2-oxo-1,2-dihydro-indol-3-ylidene]-hydrazide] returned an IC50 of 6660 nM.

In turn, `COc1ccc2c(c1Cl)/C(=N/NC(=O)Cc1ccc(O)cc1)C(=O)N2` [II-94, (4-Hydroxy-phenyl)-acetic acid [(3Z)-4-chloro-5-methoxy-2-oxo-1,2-dihydro-indol-3-ylidene]-hydrazide] came in with an IC50 of 21 nM.

Turning to `O=C1Nc2ccccc2/C1=N/NC(=O)C(F)(F)c1ccc(F)cc1` [Example I-32, Difluoro-(4-fluoro-phenyl)-acetic acid [(3Z)-2-oxo-1,2-dihydro-indol-3-ylidene]-hydrazide], the IC50 was > 20000 nM.

For `CC(C(=O)N/N=C1\C(=O)Nc2ccc(S(=O)(=O)NCCN3CCOCC3)cc21)c1ccc(O)cc1` (stereo not shown) [Example I-27, (3Z)-3-{[2-(4-Hydroxy-phenyl)-propionyl]-hydrazono}-2-oxo-2,3-dihydro-1H-indole-5-sulfonic acid (2-morpholin-4-yl-ethyl)-amide], the IC50 worked out at 390 nM.

`Cc1ccc(C)c2c1NC(=O)/C2=N\NC(=O)C(C)c1ccc(O)cc1` (stereo not shown) [II-57, 2-(4-Hydroxy-phenyl)-propionic acid [(3Z)-4,7-dimethyl-2-oxo-1,2-dihydro-indol-3-ylidene]-hydrazide] gave a half-inhibitory concentration (IC50) of 16 nM.

Consider `CN(C)CC#Cc1ccc2c(c1)/C(=N/NC(=O)Cc1ccc(F)cc1)C(=O)N2` [Example I-50, (4-Fluoro-phenyl)-acetic acid [(3Z)-5-(3-dimethylamino-prop-1-ynyl)-2-oxo-1,2-dihydro-indol-3-ylidene]-hydrazide], for which half-maximal inhibition (IC50) required 11900 nM.
